Experiment [1] concerns A431 cells. The experiment in a line: In vitro growth inhibition (MTT assay) in A431 cells. It counts as cell-based, human. To be noted: read-out: Inhibition of cell growth IC50. Here is the method: This assay measures the amount of MTT reduction by mitochondrial dehydrogenase and assumes that cell viability (corresponding to the reductive activity) is proportional to the production of purple formazan that is measured spectrophotometrically.
(§1) Cell line. The in vitro biological studies were established using the human epidermoid vulvar carcinoma A431 cell line, which overexpresses EGFR. Cells were available in our laboratory from previous studies. Cells were maintained in high glucose D-MEM medium with L-glutamine (PAA Laboratories GmbH, Pasching, Austria) and supplemented with 10% fetal bovine serum (PAA Laboratories GmbH) and penicillin/streptomycin (PAA Laboratories GmbH) 100 UI/100 μg per mL, in 5% CO2 incubator at 37 °C.
The in vitro cytotoxicity of the synthesized ligands and their rhenium complexes was determined by the MTT method. The A431 cells were seeded in 96-well plates at a density of 4000 cells per 100 μL per well and incubated for 24 h so that they were attached to the wells. After 24 h, the studied derivatives were dissolved in DMSO ([…]) and further diluted in D-MEM in various concentrations. […] The six concentrations of each derivative and control existed quadrupled into the experiment. The derivatives and the cells were incubated for 72 h. After three days, the medium was removed, and the cells were incubated […] in the presence of MTT (1 mg/mL 3-[4,5-dimethylthiazol-2-yl]-2,5-diphenyltetrazolium bromide, Sigma, Saint Louis, MO, USA) in RPMI (PAA Laboratories GmbH, Pasching, Austria) without phenol red for 2 h at 37 °C. The MTT solution was removed, and 2-propanol was added to each well to stop the cleavage of the tetrazolium ring by dehydrogenase enzymes which convert MTT to an insoluble purple formazan in living cells. The plates were then agitated at room temperature for about 15–20 min, and the level of the colored formazan derivative was determined by measuring optical density (OD) on an ELISA reader (540/620 nm). […] Cell proliferation assay was performed three times for each compound.
On the technique in general: Tetrazolium assays rely on reduction of a dye to a coloured formazan, in cell work by metabolically active cells.

Experiment [2] concerns the target T1, EGFR (Homo sapiens, UniProt P00533).
T1 construct: by immunoblotting in intact A431 cells that overexpress EGFR; endogenous in cells; host or cells: A431 (human epidermoid vulvar carcinoma)
The experiment in a line: Inhibition of EGFR phosphorylation in intact A431 cells (immunoblotting). The class given is cell-based. To be noted: 2 h compound then EGF 20 ng/mL 5 min, Western blot. Here is the method: Complex 5a was evaluated for its potency to inhibit EGFR phosphorylation in various concentrations by immunoblotting in intact A431 cells that overexpress EGFR (Figure 3). In addition, the percentage of EGFR phosphorylation was calculated, and a dose-response curve was performed (Figure 4).
as §1
The inhibition of EGFR phosphorylation was studied as described in the literature. A431 cells (5 × 10^5 cells/well) were seeded in 6-well plates and incubated for 24 h. Then, the medium was replaced with fresh medium without fetal bovine serum. […] Protein band quantification was performed using Image-J software, and the percentage of EGFR phosphorylation inhibition was calculated using GraphPad Prism 9.0 software.
For orientation: In western blotting, separated proteins are transferred to a membrane and probed.

[3] abbreviates: A431 cancer cell line, MTT, 72 h, mean ± SD of three experiments.
Where [4] appears, read: Homo sapiens, A-431, A431 cancer cell line, MTT, 72 h, mean ± SD of three experiments.

Molecules are shown by their SMILES. Read-outs that look alike come from different tables or passages of the source.

T1 sequence (P00533 25-1210): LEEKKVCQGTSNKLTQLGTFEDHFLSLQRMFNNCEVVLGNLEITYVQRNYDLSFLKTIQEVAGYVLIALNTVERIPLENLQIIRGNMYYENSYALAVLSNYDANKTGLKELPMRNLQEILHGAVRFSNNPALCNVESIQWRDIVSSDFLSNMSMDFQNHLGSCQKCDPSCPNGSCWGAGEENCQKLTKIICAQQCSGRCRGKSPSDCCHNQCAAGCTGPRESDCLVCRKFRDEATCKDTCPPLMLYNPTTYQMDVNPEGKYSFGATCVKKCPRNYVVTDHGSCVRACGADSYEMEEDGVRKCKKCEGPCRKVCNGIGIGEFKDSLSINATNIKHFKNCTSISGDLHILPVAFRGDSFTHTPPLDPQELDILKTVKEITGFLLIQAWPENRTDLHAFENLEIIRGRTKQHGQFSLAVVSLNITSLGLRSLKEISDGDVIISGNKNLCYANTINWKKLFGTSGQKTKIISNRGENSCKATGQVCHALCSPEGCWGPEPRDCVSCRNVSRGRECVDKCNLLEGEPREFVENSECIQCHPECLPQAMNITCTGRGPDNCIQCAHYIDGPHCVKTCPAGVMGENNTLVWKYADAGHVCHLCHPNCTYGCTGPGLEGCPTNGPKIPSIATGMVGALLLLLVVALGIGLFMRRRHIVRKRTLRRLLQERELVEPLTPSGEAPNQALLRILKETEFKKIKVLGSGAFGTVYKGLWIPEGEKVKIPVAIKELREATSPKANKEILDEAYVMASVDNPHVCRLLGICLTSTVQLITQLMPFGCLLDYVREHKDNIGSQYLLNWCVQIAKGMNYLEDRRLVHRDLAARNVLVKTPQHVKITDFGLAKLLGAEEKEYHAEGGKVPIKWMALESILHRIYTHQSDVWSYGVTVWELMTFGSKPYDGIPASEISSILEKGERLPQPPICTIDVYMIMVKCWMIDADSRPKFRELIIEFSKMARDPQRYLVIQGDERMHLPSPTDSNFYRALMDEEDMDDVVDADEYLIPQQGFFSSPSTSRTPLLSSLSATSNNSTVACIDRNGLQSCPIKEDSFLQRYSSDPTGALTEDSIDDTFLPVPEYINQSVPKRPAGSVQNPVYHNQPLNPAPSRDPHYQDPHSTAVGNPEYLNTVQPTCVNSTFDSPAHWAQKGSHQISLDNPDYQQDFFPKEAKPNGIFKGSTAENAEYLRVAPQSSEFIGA

Regarding `NC(CSCCCCCC(=O)Nc1ccc2ncnc(Nc3cccc(Br)c3)c2c1)C(=O)[O-].[C-]#[O+].[C-]#[O+].[C-]#[O+].[Re+]` (stereo not drawn) [Compound 7a, fac-[Re(SNO)(CO)3]], the IC50 (usually the midpoint of a concentration-inhibition curve) in experiment [1] (setting [3]) was found to be 29.6 ± 3.63 µM.
Take `CCOC(=O)CN(CCCCCC(=O)Nc1ccc2ncnc(Nc3cccc(Br)c3)c2c1)Cc1ccccn1` [Compound 4, 6-(pyridine-2-methyl N, N, acetic ethyl ester-hexanoyl)-4-[(3-bromophenyl)amino]-quinazoline]: the half-inhibitory concentration (IC50) in experiment [1] (setting [4]) is 25.6 ± 3.87 µM.
Consider `O=C([O-])CN(CCCCCC(=O)Nc1ccc2ncnc(Nc3cccc(Br)c3)c2c1)Cc1ccccn1.[C-]#[O+].[C-]#[O+].[C-]#[O+].[Re+]` [Compound 5a, fac-[Re(NNO)(CO)3]], for which the concentration for half-maximal inhibition (IC50) in experiment [1] (setting [3]) came out at 8.85 ± 2.62 µM; in experiment [2], 0.0261 µM.
With `Nc1ccc2ncnc(Nc3cccc(Br)c3)c2c1` [Compound 1, 6-amino-4-[(3-bromophenyl)amino] quinazoline, reference compound], the IC50 in experiment [1] (Homo sapiens, A-431, 72 h) worked out at 2.3 ± 0.3 µM.
On to `NC(CSCCCCCC(=O)Nc1ccc2ncnc(Nc3cccc(Br)c3)c2c1)C(=O)O` (stereo not drawn) [Compound 6, 6-(cysteine-N-hexanoyl)-4-[(3-bromophenyl)amino]-quinazoline], for which, in experiment [1] (setting [4]), the IC50 is 4.12 ± 0.92 µM.

The record behind these values is article PMC9960821, “Evaluation of Rhenium and Technetium-99m Complexes Bearing Quinazoline Derivatives as Potential EGFR Agents” (Molecules, 2023).
